The test system of this assay is JAK2/STAT5. The experiment in a line: JAK2/STAT5 phosphorylation in breast cancer cell lines (pJAK2 ELISA, pSTAT5 immunoblot). The conditions noted are these: in vitro, after 4 hours-8 hours of treatment. It counts as cell-based, human. The protocol: MDA231, lung metastatic subline MDA231 LM2 (Minn et al., 2005) and SUM159 human breast cancer cells, as well as the Balb/c tumor-derived mammary cancer lines 4T-1 and 168FARN (Aslakson and Miller, 1992), were propagated as previously described. All other cell lines were obtained from and were cultured according to the protocols of ATCC. For treatment with inhibitors, cells were synchronized without serum overnight and then supplemented with culture medium containing the inhibitor(s). For experiments with doxycycline-inducible shRNAs, 500 ng/ml of doxycycline (Sigma) was added to the medium and experiments performed 48 h later. Cell viability assays, cell cycle and cell death measurements were performed at 0.5% FCS in order to avoid masking effects of growth factors present under full-serum conditions.
Cells for Western Blotting and ELISA were lysed with RIPA buffer. Xenograft lysates were prepared by lysing kryo-homogenized tumor powder in RIPA buffer (50 mM Tris-HCl pH 8, 150 mM NaCl, 1% NP-40, 0.5% sodium deoxycholate, 0.1% SDS. RIPA was supplemented with 1× protease inhibitor cocktail (Complete Mini, Roche), 0.2 mmol/L sodium-vanadate, 20 mM sodium fluoride and 1 mmol/L phenylmethylsulfonyl fluoride. For IRS-1 immunoprecipitation, cell lysates containing 500-1000 μg of protein were incubated with 1 μg of antibody and 20-50 μl of protein A-Sepharose beads (Zymed Laboratories, Inc., South San Francisco, Calif.) overnight at 4° C. Immunoprecipitates or whole cell lysates (30-80 μg) were subjected to SDS-PAGE, transferred to PVDF membranes (Immobilon-P, Millipore) and blocked for 1 hr at room temperature with 5% milk in PBS-0.1% Tween 20. Membranes were then incubated overnight with antibodies as indicated and exposed to secondary HRP-coupled anti-mouse or -rabbit antibody at 1:5-10,000 for 1 h at room temperature. Proteins were visualized using an ECL kit (Amersham) or an enhanced chemiluminescence detection system (Pierce Biotechnology). In each of the studies presented, the results shown are typical of at least three independent experiments. The following antibodies were used: anti-JAK2 (Cell Signaling), anti-JAK1 (Cell Signaling), anti-pSTAT5 (Tyr694, Cell Signaling), anti-STAT5 (STAT5A&B, Cell Signaling), anti-STAT3 (Cell Signaling), anti-pSTAT3 (Tyr705, Cell Signaling), anti-AKT pan (Cell Signaling), anti-pAKT (Thr308 and Ser473, Cell Signaling), anti-ERK2 (Santa Cruz), anti-S6 (Cell Signaling), anti-pS6 (Ser235/236, Cell Signaling), anti-PARP (Cell Signaling), anti-MCL1 (Cell Signaling), anti-BIM (EL, L and S isoforms, Cell Signaling), anti-pIGF1R/plnsR (Invitrogen), anti-IGF1Rbeta (Cell Signaling), anti-InsRbeta (Santa Cruz), anti-IRS1 (Upstate), anti-plRS1 (Tyr612, Calbiochem).
For assessing pJAK2 levels, an ELISA assay (Tyr1007/1008, Invitrogen) was applied because of cross-reactivity of all pJAK2 antibodies tested. Interleukin-8 levels in RIPA lysates, cell culture supernatants and mouse tail vein blood plasma were measured by ELISA, as well (Biolegend). […]
The present inventors applied single doses of COMPOUND A, a dual PI3K and mTOR inhibitor, and analyzed target inhibition and potential signaling pathway crosstalks after 2, 4, 8 and 20 h hours of treatment. […] While RAD001 readily activated JAK2 starting at 4 hours of treatment, they observed a later response with BKM120 treatment starting at 8 hours after adding the compound. […]

As to `Cn1c(=O)n(-c2ccc(C(C)(C)C#N)cc2)c2c3cc(-c4cnc5ccccc5c4)ccc3ncc21` [COMPOUND A, 2-methyl-2-[4-(3-methyl-2-oxo-8-quinolin-3-yl-2,3-dihydro-imidazo[4,5-c]quinolin-1-yl)-phenyl]-propionitrile], the pJAK2 result is reported as “considerable upregulation” and the pSTAT5 entry is “considerable upregulation”.

For the origin of these results see US20150224190A1, “Combination of a phosphoinositide 3-kinase inhibitor and an inhibitor of the IL-8/CXCR interaction” (priority 2012, published 2015).
